According to patent publication US20240368150A1 (Hoffmann-La Roche Inc., priority 2021, published 2024):
Where two headings read alike, the source gives them in different places.

Assays:
primary human T-cells [1] = test: Proliferation assay after 5 days (CellTiter-Glo, CD3 stimulation; PBS counter screen); type: cell-based; conditions: CD3 stimulation; for Emax: read-out: Emax proliferation (% activation); for EC50: primary human T-cells, CellTiter-Glo after 5 days, EC50 of fitted sigmoidal curve, read-out: Tcell Proliferation CD3 EC50
Procedure, shortened: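 Primary human T-cells, with or without CD3 stimulation, exposed to compounds for 5 days; cell number read as ATP by CellTiter-Glo 2.0 luminescence after 45 min equilibration and 15 min reagent incubation at room temperature. Compounds activating unstimulated cells or reducing viability were flagged.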

primary human T-cells [2] = test system: primary human T-cells
[3] = Homo sapiens, T-cell, 120 h, 5 days, normalized to reference compound A1 as stimulator control = 100%, DMSO neutral control

Row | EC50 (primary human T-cells [2]) | SMILES | Emax (primary human T-cells [1]; [3]) | EC50 (primary human T-cells [1]; Homo sapiens, T-cell, 120 h) | Emax proliferation (% activation) (primary human T-cells [1]; 5 days, normalized to reference compound A1 as stimulator control = 100%, DMSO neutral control) | EC50 (primary human T-cells [1])
1 | 0.849 µM | CC(C)(C)c1nnc(-c2cc3c(cc2F)S(=O)(=O)C[C@H](N)C(=O)N3Cc2cnn(CC3CC3)c2)o1 [Example 255, (3R)-3-amino-7-(5-tert-butyl-1,3,4-oxadiazol-2-yl)-5-[[1-(cyclopropylmethyl)pyrazol-4-yl]methyl]-8-fluoro-1,1-dioxo-2,3-dihydro-1λ^6,5-benzothiazepin-4-one] | 78% | 4830 nM | – | –
2 | > 20 µM | CC(C)(C)c1nnc(-c2cc3c(cc2F)S(=O)(=O)C[C@H](N)C(=O)N3Cc2ccc(Cl)cc2CN)o1 [Example 256, (3R)-3-amino-5-[[2-(aminomethyl)-4-chloro-phenyl]methyl]-7-(5-tert-butyl-1,3,4-oxadiazol-2-yl)-8-fluoro-1,1-dioxo-2,3-dihydro-1λ^6,5-benzothiazepin-4-one] | 3% | > 20000 nM | – | –
3 | > 20 µM | CC(C)(C)c1nnc(-c2cc3c(cc2F)S(=O)(=O)C[C@H](N)C(=O)N3Cc2ccc(OCCCCCCCCCCCN)cc2)o1 [Example 257, (3R)-3-amino-5-[[4-(11-aminoundecoxy)phenyl]methyl]-7-(5-tert-butyl-1,3,4-oxadiazol-2-yl)-8-fluoro-1,1-dioxo-2,3-dihydro-1λ^6,5-benzothiazepin-4-one] | 142% | < 162 nM | – | –
4 | 10.8 µM | CC(=O)N[C@H]1CS(=O)(=O)c2cc(F)c(-c3nnc(C(C)(C)C)o3)cc2N(Cc2ccc(Cl)cc2)C1=O [Example 258, N-[(3R)-7-(5-tert-butyl-1,3,4-oxadiazol-2-yl)-5-[(4-chlorophenyl)methyl]-8-fluoro-1,1,4-trioxo-2,3-dihydro-1λ^6,5-benzothiazepin-3-yl]acetamide] | 124% | 586 nM | – | –
5 | 2.1 µM | CCC(=O)N[C@H]1CS(=O)(=O)c2cc(F)c(-c3nnc(C(C)(C)C)o3)cc2N(Cc2ccc(Cl)cc2)C1=O [Example 259, N-[(3R)-7-(5-tert-butyl-1,3,4-oxadiazol-2-yl)-5-[(4-chlorophenyl)methyl]-8-fluoro-1,1,4-trioxo-2,3-dihydro-1λ^6,5-benzothiazepin-3-yl]propanamide] | 159% | 345 nM | – | –
6 | > 20 µM | CC[C@H](O)C(=O)N[C@H]1CS(=O)(=O)c2cc(F)c(-c3nnc(C(C)(C)C)o3)cc2N(Cc2ccc(Cl)cc2)C1=O [Example 260, (2S)-N-[(3R)-7-(5-tert-butyl-1,3,4-oxadiazol-2-yl)-5-[(4-chlorophenyl)methyl]-8-fluoro-1,1,4-trioxo-2,3-dihydro-1λ^6,5-benzothiazepin-3-yl]-2-hydroxy-butanamide] | 82% | 1820 nM | – | –
7 | 2.69 µM | CCCC(=O)N[C@H]1CS(=O)(=O)c2cc(F)c(-c3nnc(C(C)(C)C)o3)cc2N(Cc2ccc(Cl)cc2)C1=O [Example 261, N-[(3R)-7-(5-tert-butyl-1,3,4-oxadiazol-2-yl)-5-[(4-chlorophenyl)methyl]-8-fluoro-1,1,4-trioxo-2,3-dihydro-1λ^6,5-benzothiazepin-3-yl]butanamide] | 115% | 428 nM | – | –
8 | 1.4 µM | CC[C@H](NC)C(=O)N[C@H]1CS(=O)(=O)c2cc(F)c(-c3nnc(C(C)(C)C)o3)cc2N(Cc2ccc(Cl)cc2)C1=O [Example 263, (2S)-N-[(3R)-7-(5-tert-butyl-1,3,4-oxadiazol-2-yl)-5-[(4-chlorophenyl)methyl]-8-fluoro-1,1,4-trioxo-2,3-dihydro-1λ^6,5-benzothiazepin-3-yl]-2-(methylamino)butanamide] | – | – | 185 % activation | < 162 nM
9 | 8.1 µM | CC(C)(C)c1nnc(-c2cc3c(cc2F)S(=O)(=O)C[C@H](NC(=O)CCN)C(=O)N3Cc2ccc(Cl)cc2)o1 [Example 264, 3-amino-N-[(3R)-7-(5-tert-butyl-1,3,4-oxadiazol-2-yl)-5-[(4-chlorophenyl)methyl]-8-fluoro-1,1,4-trioxo-2,3-dihydro-1λ^6,5-benzothiazepin-3-yl]propanamide] | 106% | 2700 nM | – | –
10 | > 20 µM | CNCC(=O)N[C@H]1CS(=O)(=O)c2cc(F)c(-c3nnc(C(C)(C)C)o3)cc2N(Cc2ccc(Cl)cc2)C1=O [Example 265, N-[(3R)-7-(5-tert-butyl-1,3,4-oxadiazol-2-yl)-5-[(4-chlorophenyl)methyl]-8-fluoro-1,1,4-trioxo-2,3-dihydro-1λ^6,5-benzothiazepin-3-yl]-2-(methylamino)acetamide] | 143% | 884 nM | – | –
11 | 5.44 µM | CC(C)(C)c1nnc(-c2cc3c(cc2F)S(=O)(=O)C[C@H](NC(=O)CCCN)C(=O)N3Cc2ccc(Cl)cc2)o1 [Example 267, 4-amino-N-[(3R)-7-(5-tert-butyl-1,3,4-oxadiazol-2-yl)-5-[(4-chlorophenyl)methyl]-8-fluoro-1,1,4-trioxo-2,3-dihydro-1λ^6,5-benzothiazepin-3-yl]butanamide] | 74% | 3070 nM | – | –
12 | 7.83 µM | CN[C@@H](C)C(=O)N[C@H]1CS(=O)(=O)c2cc(F)c(-c3nnc(C(C)(C)C)o3)cc2N(Cc2ccc(Cl)cc2)C1=O [Example 268, (2S)—N-[(3R)-7-(5-tert-butyl-1,3,4-oxadiazol-2-yl)-5-[(4-chlorophenyl)methyl]-8-fluoro-1,1,4-trioxo-2,3-dihydro-1λ^6,5-benzothiazepin-3-yl]-2-(methylamino)propanamide] | 95% | 249 nM | – | –
13 | > 10 µM | CN[C@@H](CO)C(=O)N[C@H]1CS(=O)(=O)c2cc(F)c(-c3nnc(C(C)(C)C)o3)cc2N(Cc2ccc(Cl)cc2)C1=O [Example 269, (2S)-3-hydroxy-2-(methylamino)-N-[(3R)-7-(5-tert-butyl-1,3,4-oxadiazol-2-yl)-5-[(4-chlorophenyl)methyl]-8-fluoro-1,1,4-trioxo-2,3-dihydro-1λ^6,5-benzothiazepin-3-yl]propanamide] | 67% | 5840 nM | – | –
14 | 4.81 µM | CC(C)(C)c1nnc(-c2cc3c(cc2Br)S(=O)(=O)C[C@H](N)C(=O)N3Cc2ccc(Cl)cc2)o1 [Example 271, (3R)-3-amino-8-bromo-7-(5-tert-butyl-1,3,4-oxadiazol-2-yl)-5-[(4-chlorophenyl)methyl]-1,1-dioxo-2,3-dihydro-1λ^6,5-benzothiazepin-4-one] | 91% | 3190 nM | – | –
15 | 7.21 µM | CC(C)(C)c1nnc(-c2cc3c(cc2O)S(=O)(=O)C[C@H](N)C(=O)N3Cc2ccc(Cl)cc2)o1 [Example 273, (3R)-3-amino-7-(5-tert-butyl-1,3,4-oxadiazol-2-yl)-5-[(4-chlorophenyl)methyl]-8-hydroxy-1,1-dioxo-2,3-dihydro-1λ^6,5-benzothiazepin-4-one] | 61% | 3190 nM | – | –
16 | > 20 µM | CN(C)c1cc2c(cc1-c1nnc(C(C)(C)C)o1)N(Cc1ccc(Cl)cc1)C(=O)[C@@H](N)CS2(=O)=O [Example 274, (3R)-3-amino-7-(5-tert-butyl-1,3,4-oxadiazol-2-yl)-5-[(4-chlorophenyl)methyl]-8-(dimethylamino)-1,1-dioxo-2,3-dihydro-1λ^6,5-benzothiazepin-4-one] | 10% | > 20000 nM | – | –
17 | 9.15 µM | CC(C)(C)c1nnc(-c2cc3c(cc2N)S(=O)(=O)C[C@H](N)C(=O)N3Cc2ccc(Cl)cc2)o1 [Example 275, (3R)-3,8-diamino-7-(5-tert-butyl-1,3,4-oxadiazol-2-yl)-5-[(4-chlorophenyl)methyl]-1,1-dioxo-2,3-dihydro-1λ^6,5-benzothiazepin-4-one] | 108% | 5490 nM | – | –
18 | 1.06 µM | Cc1cc2c(cc1-c1nnc(C(C)(C)C#N)o1)N(Cc1ccc(Cl)cc1)C(=O)[C@@H](N)CS2(=O)=O [Example 276, 2-[5-[(3R)-3-amino-5-[(4-chlorophenyl)methyl]-8-methyl-1,1,4-trioxo-2,3-dihydro-1λ^6,5-benzothiazepin-7-yl]-1,3,4-oxadiazol-2-yl]-2-methyl-propanenitrile] | 96% | 2730 nM | – | –
19 | 6.94 µM | Cc1cc2c(cc1-c1nnc(C(C)C#N)o1)N(Cc1ccc(Cl)cc1)C(=O)[C@@H](N)CS2(=O)=O (stereo partly drawn) [Example 277, 2-[5-[(3R)-3-amino-5-[(4-chlorophenyl)methyl]-8-methyl-1,1,4-trioxo-2,3-dihydro-1λ^6,5-benzothiazepin-7-yl]-1,3,4-oxadiazol-2-yl]propanenitrile] | 59% | 8220 nM | – | –
20 | 0.47 µM | CCn1cc(-c2cc3c(cc2F)S(=O)(=O)C[C@H](N)C(=O)N3Cc2ccc(Cl)cc2)cn1 [Example 279] | 90% | 5340 nM | – | –
21 | 0.853 µM | CCn1ccc(-c2cc3c(cc2F)S(=O)(=O)C[C@H](N)C(=O)N3Cc2ccc(Cl)cc2)n1 [Example 280, (3R)-3-amino-5-[(4-chlorophenyl)methyl]-7-(1-ethylpyrazol-3-yl)-8-fluoro-1,1-dioxo-2,3-dihydro-1λ^6,5-benzothiazepin-4-one] | 52% | 19500 nM | – | –
22 | > 10 µM | CN1CC(n2cc(-c3cc4c(cc3F)S(=O)(=O)C[C@H](N)C(=O)N4Cc3ccc(Cl)cc3)cn2)CC(F)(F)C1 (stereo partly drawn) [Example 281, (3R)-3-amino-5-[(4-chlorophenyl)methyl]-7-[1-(5,5-difluoro-1-methyl-3-piperidyl)pyrazol-4-yl]-8-fluoro-1,1-dioxo-2,3-dihydro-1λ^6,5-benzothiazepin-4-one] | 89% | 1040 nM | – | –
